Series [1] can be described thus: Side effects / tolerability on administration. It counts as in vivo, humans. An excerpt: It can even appear upon merely smelling the atmosphere of a barroom. […] However, in comparison with the known severe results of a marked abuse of alcohol, these side effects are negligible.
Series [2] relates to aversion to alcohol in humans. Description: Alcohol withdrawal/aversion treatment in patients (case histories). It counts as in vivo. As for the experimental part:
In a particularly preferred mode of administration, tablets or dragees containing about 800 mg. of I are used. As an example of its use, after at least 12 hours of alcohol abstention, a half tablet (400 mg.) can be given in the morning before eating, and another half on the next day.
22 Men and 5 women were treated with the new agent I. The youngest patient was 22 and the oldest 68. The average age was 44 years. After the first administration (400 mg., twice), as described above, the dosage consisted of a single oral administration of 800 mg. per week. The highest total dosage amounted to 67 g. of I. With this, the patient could be protected against the influence of alcohol for 84 weeks.
In assessment of success, 5 cases are to be discounted from the total of 27 I treatments. […] Thus, 22 cases remain which can be considered as I treatments. In 12 of these cases, the withdrawal treatment was successful; in three cases questionable; and 7 cases without success. […] After taking 11 g. of I and more (corresponding to an active level period of over 14 weeks), 8 successful cases were counted and two had questionable success. Below 6 g. of I (corresponding to an active level of not more than 8 weeks), there were seven failures; one questionable case and only 2 successful withdrawals.

Series [3] relates to important enzyme systems. Description: Inhibition of important enzyme systems. In kind it is biochemical. As to conditions: compound I. An excerpt: (§1) In contrast, important enzyme systems are inhibited by use of disulfiram.
A short description of series [4]: Critical examinations for possible damages (clinical laboratory and blood pressure determinations). It counts as in vivo, humans. As to conditions: bilirubin in the blood. An excerpt:
In addition to the treatment with I, critical examinations for possible damages were undertaken. […] However, this observation probably only applies indirectly and exclusively to alcohol-toxic liver damages because toxic alcohol which was no longer inhibited, no longer acted upon the liver.

The nature of series [5]: Half-life time of the active material. As to conditions: in vivo.
The test system of series [6] is acetaldehyde content of the blood. The series can be described thus: Acetaldehyde content of the blood after the consumption of alcohol. It counts as in vivo.
From the text: as §1

In series [7] the test system is trypanosomes. As to conditions: known from P 16 20 043 / GB 1,133,408; cited from earlier work.
In series [8] the test system is important enzyme systems. As to conditions: disulfiram; cited from earlier work.
For series [9] the following is noted: disulfiram, cited from earlier work.
The mark [10] stands for this setting: after administration of I, humans.
[11] abbreviates: below 6 g. of I (active level of not more than 8 weeks).

“Also recorded” adds a separate entry of the source. Read-outs that look alike come from different tables or passages of the source. Bounds are passed on as bounds.

By half-life is commonly meant the time in which the quantity being followed falls by half. For `Cc1nc([N+](=O)[O-])cn1-c1ccc([N+](=O)[O-])cc1` [compound I, 1-(4-nitrophenyl)-2-methyl-4-nitroimidazole], in series [1] (Example 1: after first 400 mg.), the compatibility entry was “Good compatibility”. Besides, in [1] (setting [10]), the “severity of side effects” value is listed as “generally minor”; the “side effects which occasionally appear” value is “tachycardia, flush-like skin reddenings, sickly feelings, headache and hangover”. The successful cases in [2] (11 g. of I and more (active level period of over 14 weeks)) was found to be 8 cases. For the same molecule, in [2] (22 evaluable cases), the “correlation of success with period of the withdrawal treatment” value is “clearly correlated”. Besides, the outcome of treatment in series [2] (Example 1: champagne cellerman, total dosage 67 g., first treatment from May 1972) is “the patient behaved normally and worked regularly”. The “outcome of renewed treatment” value in series [2] (Example 1: treatment begun again after relapse in May 1974, up to January 1975) was “same good success”. For the same molecule, the “effect of alcohol after discontinuation of treatment” value in [2] (Example 2: one month after discontinuation (treated November 1973 to February 1974)) is reported as “throbbing headache caused by alcohol”. Also, the outcome of treatment in [2] (Example 2: storekeeper, total dosage 57 g., since April 1974, relatively regular taking of tablets) is recorded as “normal, regular work”. In series [2] (Example 3: total dosage 37 g., after renewed treatment November 1973 to January 1975), the outcome of treatment is listed as “no alcohol”. Moreover, the outcome of treatment in series [2] (Example 4: immigrant worker, total dosage 25 g., statement of spouse) is listed as “successful breaking of the habit”. Further, the “alcohol consumption since the end of the treatment” value in series [2] (Example 4: total dosage 25 g., according to statements of the wife) is on record as “only had an occassional 1-2 glasses of wine”. Also, in series [2] (Example 5: employee, total dosage 17 g., after treatment September 1974 to February 1975), the outcome of treatment is “alcohol-free”. In addition, the revulsion against alcohol result in [2] (after the administration of I, humans) is on record as “a pronounced revulsion against alcohol is produced; also recorded: causes an aversion to alcohol in humans”. Moreover, in [2] (setting [11]), the failures result is listed as “seven”, the questionable case entry is given as “one” and the successful withdrawals was found to be 2. For the same molecule, the “patient protected against the influence of alcohol, duration” value in series [2] (highest total dosage 67 g., 400 mg. twice, then oral 800 mg. per week) amounted to 84 weeks. In [2] (of 22 evaluable cases), the withdrawal treatment questionable entry is reported as “three”, the withdrawal treatment successful is 12 cases and the “withdrawal treatment without success” value was 7 cases. Moreover, the “inhibition of important enzyme systems” value in series [3] is reported as “No such inhibition occurs”. Further, in [4] (γ-GT and γ-globulins, probably indirect, alcohol-toxic liver damages only), the liver function tests result was “clear normalizations”. In series [4] (lymphocytes, GT, GOT, GPT, total protein, β-globulins, γ-globulins, cholesterol, RR systolic), the “harmful side effects in laboratory examinations” value is given as “no indications of harmful side effects”. This molecule also came in with a half-life in [5] above 40 h. Also, in [6], the “acetaldehyde content of the blood” value is on record as “increase”. In addition, in series [7], the “effectiveness against disease-causing trypanosomes” value is reported as “effectiveness”.
For the molecule `CCN(CC)C(=S)SSC(=S)N(CC)CC` [disulfiram], the “inhibition of important enzyme systems” value in series [8] was “inhibited”. The side effects result in [9] (orally administered) was “several undesirable side effects”. Also, the contraindication result in series [9] (inter alia diabetes) was “contraindicated by, inter alia, diabetes”.

(Values after US4182770A, “Alcohol deterrent” (priority 1976, dated 1980).)
